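Each compound was tested at five concentrations against cells in 96-well plates for 48 hours. The concentration for full growth arrest is given as TGI.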
Tests used:
Assay in all cases: growth of human tumour cells (NCI), 48 h
[1] = system: SNB-19 CNS
[2] = system: HT29 colon
[3] = system: SN12C renal
[4] = system: HOP-92 NSCLC
[5] = system: A498 renal
[6] = system: NCI-H522 lung
[7] = system: RXF 393 renal
[8] = system: UO-31 renal
[9] = system: MDA-MB-435
[10] = system: RPMI-8226 leukemia
[11] = system: PC-3 prostate
[12] = system: MDA-MB-231 breast
[13] = system: CCRF-CEM leukemia
[14] = system: SNB-75 CNS
[15] = system: NCI-H460 lung
[16] = system: SF-268 CNS
[17] = system: CAKI-1 renal
[18] = system: HS 578T breast
[19] = system: SK-OV-3 ovarian
[20] = system: SK-MEL-5 melanoma
[21] = system: DU-145 prostate
[22] = system: M14 melanoma
[23] = system: T-47D breast
[24] = system: MDA-N
[25] = system: MOLT-4 leukemia
[26] = system: NCI-H226 lung
[27] = system: SK-MEL-28 melanoma
[28] = system: OVCAR-4 ovarian
[29] = system: A549 NSCLC
[30] = system: SR leukemia
[31] = system: IGROV1 ovarian
[32] = system: HCC-2998 colon
[33] = system: U251 CNS
[34] = system: ACHN renal
[35] = system: 786-0 renal
[36] = system: EKVX NSCLC
[37] = system: HCT-116 colon
[38] = system: OVCAR-5 ovarian
[39] = system: K-562 leukemia
[40] = system: MCF7 breast
[41] = system: MALME-3M melanoma
[42] = system: SF-539 CNS
[43] = system: OVCAR-3 ovarian
[44] = system: SK-MEL-2 melanoma
[45] = system: NCI/ADR-RES ovarian
[46] = system: HOP-62 NSCLC
[47] = system: HCT-15 colon
[48] = system: HL-60(TB) leukemia
[49] = system: COLO 205 colon
[50] = system: SW-620 colon
[51] = system: UACC-62 melanoma
[52] = system: OVCAR-8 ovarian
[53] = system: UACC-257 melanoma
[54] = system: NCI-H23 lung
[55] = system: SF-295 CNS

O=C(O)c1ccc(CI)cc1
TGI [1]: 31.9 µM | TGI [2]: 37.9 µM | TGI [3]: 34.7 µM | TGI [4]: 31 µM | TGI [5]: 35.3 µM | TGI [6]: 11.8 µM | TGI [7]: 37.6 µM | TGI [8]: 32.7 µM | TGI [9]: 54.9 µM | TGI [10]: 45.8 µM | TGI [11]: 30.3 µM | TGI [12]: 37.6 µM | TGI [13]: 26.9 µM | TGI [14]: 49.9 µM | TGI [15]: 31.7 µM | TGI [16]: 39.8 µM | TGI [17]: 27.6 µM | TGI [18]: > 100 µM | TGI [19]: 55 µM | TGI [20]: 31.3 µM | TGI [21]: 35.9 µM | TGI [22]: 41.3 µM | TGI [23]: 48 µM | TGI [24]: 34.4 µM | TGI [25]: 40.7 µM | TGI [26]: 44.1 µM | TGI [27]: 31.9 µM | TGI [28]: 27.4 µM | TGI [29]: 33.8 µM | TGI [30]: 59.1 µM | TGI [31]: 38.2 µM | TGI [32]: 35.6 µM | TGI [33]: 20.8 µM | TGI [34]: 30.1 µM | TGI [35]: 10.8 µM | TGI [36]: 36.4 µM | TGI [37]: 28.1 µM | TGI [38]: 34.5 µM | TGI [39]: 74.6 µM | TGI [40]: 31.1 µM | TGI [41]: 23.3 µM | TGI [42]: 32.1 µM | TGI [43]: 23.3 µM | TGI [44]: 48.7 µM | TGI [45]: 34.8 µM | TGI [46]: 36.1 µM | TGI [47]: 39.8 µM | TGI [48]: 42.4 µM | TGI [49]: 32.4 µM | TGI [50]: 33.7 µM | TGI [51]: 26.4 µM | TGI [52]: 37.3 µM | TGI [53]: 38.9 µM | TGI [54]: 33.1 µM | TGI [55]: 21.6 µM
